Assay results as given in ChEMBL document CHEMBL1129779, “A novel class of antagonists for metabotropic glutamate receptors, 7-(Hydroxyimino)cyclopropa[b]chromen-1a-carboxylates” (Bioorg Med Chem Lett, 1996).
pIC50: −log10 of the molar value.

Columns and labels:
[1] = molecular target: T1, Metabotropic glutamate receptor 1 (Homo sapiens, UniProt Q13255); test: Compound was tested for inhibition of glutamate-evoked (10 uM) [Ca2+] mobilization in Metabotropic glutamate receptor 1 expressed-CHO cells; NE: No effect at 1-100 uM; type: cell-based
T1 sequence (Q13255 whole entry): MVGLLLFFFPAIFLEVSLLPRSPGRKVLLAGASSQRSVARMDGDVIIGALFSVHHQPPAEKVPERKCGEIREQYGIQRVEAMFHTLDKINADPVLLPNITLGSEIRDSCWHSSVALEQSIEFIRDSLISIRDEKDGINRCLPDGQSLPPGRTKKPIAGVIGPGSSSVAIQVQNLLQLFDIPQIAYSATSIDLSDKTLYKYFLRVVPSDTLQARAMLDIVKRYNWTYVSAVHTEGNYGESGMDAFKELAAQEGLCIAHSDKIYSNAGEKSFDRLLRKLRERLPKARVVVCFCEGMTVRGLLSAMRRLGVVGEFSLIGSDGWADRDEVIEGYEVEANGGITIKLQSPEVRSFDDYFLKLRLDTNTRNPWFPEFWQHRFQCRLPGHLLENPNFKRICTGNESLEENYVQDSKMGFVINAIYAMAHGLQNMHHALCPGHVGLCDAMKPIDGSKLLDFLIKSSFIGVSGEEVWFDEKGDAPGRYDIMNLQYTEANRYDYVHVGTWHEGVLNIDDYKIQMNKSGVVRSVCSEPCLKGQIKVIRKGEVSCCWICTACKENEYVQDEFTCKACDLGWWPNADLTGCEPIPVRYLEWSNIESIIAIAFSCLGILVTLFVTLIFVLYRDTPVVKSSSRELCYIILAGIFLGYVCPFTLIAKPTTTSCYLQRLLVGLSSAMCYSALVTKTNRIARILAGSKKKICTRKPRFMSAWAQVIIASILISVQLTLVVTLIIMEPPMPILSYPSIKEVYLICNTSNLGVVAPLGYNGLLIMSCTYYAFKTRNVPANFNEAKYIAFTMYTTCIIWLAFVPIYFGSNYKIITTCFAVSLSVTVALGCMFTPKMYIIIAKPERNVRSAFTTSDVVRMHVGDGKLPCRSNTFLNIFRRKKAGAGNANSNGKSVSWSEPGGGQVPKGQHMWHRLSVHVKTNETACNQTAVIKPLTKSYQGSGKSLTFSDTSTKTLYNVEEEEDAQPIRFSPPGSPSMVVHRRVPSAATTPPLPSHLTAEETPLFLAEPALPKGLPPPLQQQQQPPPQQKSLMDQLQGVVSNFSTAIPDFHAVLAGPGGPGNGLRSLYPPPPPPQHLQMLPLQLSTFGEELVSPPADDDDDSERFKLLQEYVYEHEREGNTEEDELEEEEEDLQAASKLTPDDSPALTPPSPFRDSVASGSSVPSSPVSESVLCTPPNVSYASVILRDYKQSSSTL

[2] = molecular target: T1, Metabotropic glutamate receptor 1; test: Compound was tested for inhibition of glutamate-evoked (10 uM) [Ca2+] mobilization in mGluR1-alpha expressed-CHO cells.; type: cell-based

SMILES	IC50 [1]	pIC50 [2]
O=C(Nc1ccccc1)c1cc(=O)c2ccccc2o1	No effect	
O=C1c2ccccc2OC2(C(=O)Nc3ccccc3)CC12 (stereo unspecified)	No effect	
O=C(Nc1ccccc1)C12CC1/C(=N\O)c1ccccc1O2 (stereo unspecified)		5.52
NC(C(=O)O)c1ccc(C(=O)O)c(O)c1 (stereo unspecified)		3.70
CCOC(=O)C12CC1/C(=N\O)c1ccccc1O2 (stereo unspecified)		4.64
CN(C(=O)C12CC1/C(=N\O)c1ccccc1O2)c1ccccc1 (stereo unspecified)		5.00
CN(C(=O)C12CC1C(=O)c1ccccc1O2)c1ccccc1 (stereo unspecified)	No effect	
CCOC(=O)C12CC1C(=O)c1ccccc1O2 (stereo unspecified)	No effect	
CCOC(=O)c1cc(=O)c2ccccc2o1	No effect	
CN(C(=O)c1cc(=O)c2ccccc2o1)c1ccccc1	No effect	
CC(N)(C(=O)O)c1ccc(C(=O)O)cc1 (stereo unspecified)		3.15
